According to article PMC12040169 (PLOS Biology, 2025):

Experiment: in vitro
Conditions: human, hela cells, % viability

With O=C(CC1CCN(Cc2ccccn2)CC1)NCC1(c2ccccc2)CCCC1 [CBK285959] the viability at 28.5 h, 10 µM was 87.4%.

CN(C)CCNCc1ccccc1OC1CCCC1 [CBK278214C] gave a viability at 28.5 h, 10 µM of 111%.

For O=C(CN1C(=O)c2ccccc2C1=O)Nc1sc2c(c1C(=O)NCc1ccco1)CCCC2 [CBK265670], the viability at 28.5 h, 10 µM was 87.9%.

In the case of CN1CCN(c2ccccc2NC(=O)CSc2ccc(Cl)cc2)CC1 [CBK267941], the viability at 28.5 h, 10 µM was 98.9%.

Work on O=C(N/N=C/c1cccc(Oc2ccccc2)c1)c1ccncc1 [CBK261955] yielded a viability at 28.5 h, 10 µM of 95.6%.

O=S(=O)(Cc1ccccc1Cl)NCCN1CCOCC1 [CBK269171] gave a viability at 28.5 h, 10 µM of 102%.

Compound CC1CCc2onc(C(=O)Nc3ccncc3)c2C1 (stereo not shown) [CBK288080] has a viability at 28.5 h, 10 µM of 110%.

With C[C@@H]1CN(C(=O)c2n[nH]c3ccccc23)C[C@H](C)O1 [CBK200232] the viability at 28.5 h, 10 µM was 98.6%.

In the case of CCOc1ccc(C(=O)Nc2ccc(-c3nc4cc(C)c(C)cc4o3)cc2)cc1[N+](=O)[O-] [CBK262818], the viability at 28.5 h, 10 µM was 94.2%.

In the case of Nc1nnc(SCC(=O)Nc2ccc3c(c2)OCCO3)s1 [CBK266331], the viability at 28.5 h, 10 µM was 95.6%.

CC(=O)N(Cc1cccnc1)c1nc2cc3c(cc2s1)OCCO3 [CBK287696] showed a viability at 28.5 h, 10 µM of 99.9%.

CCCn1nnnc1NCc1cccc(Cl)c1 [CBK288130] showed a viability at 28.5 h, 10 µM of 98.7%.

In the case of COCC(=O)N[C@H]1CC(C)(C)[C@@H]2C[C@@](C)(O)CC[C@]12CCC(=O)N1CCCC1 [CBK289043], the viability at 28.5 h, 10 µM was 88.4%.

For FC(F)(F)c1ccc(OC2CCNCC2)nc1 [CBK113287], the viability at 28.5 h, 10 µM was 83%.

CCC(=O)N1CCC(c2cc(C(F)(F)F)n3nc(C)cc3n2)CC1 [CBK284367] showed a viability at 28.5 h, 10 µM of 96.9%.

Compound Cn1cc(C(=O)Nc2ccc3c(c2)CN(Cc2ccccc2)C3)cn1 [CBK281838] has a viability at 28.5 h, 10 µM of 94.8%.

For CN1CCC(=NNC(=O)c2cc(O)c(O)c(O)c2)CC1 [CBK262660], the viability at 28.5 h, 10 µM was 78.6%.

Cc1c(NC(=O)Nc2ccc(Cl)cc2)sc(=S)n1C [CBK027495] showed a viability at 28.5 h, 10 µM of 93.4%.

Nc1ccc(NC(=O)c2ccc(NC(=O)c3cnc(-c4ccccc4)c(-c4ccncc4)c3)cc2)cc1 [CBK037463] showed a viability at 28.5 h, 10 µM of 101%.

Cn1c(/C=C/C=C/CN2CCN(Cc3ccccc3)CC2)nc2ccc([N+](=O)[O-])cc21 [CBK268281] gave a viability at 28.5 h, 10 µM of 91.2%.

CCCC/C=C/c1cncc(Nc2ccccc2)n1 [CBK037942] gave a viability at 28.5 h, 10 µM of 103%.

Compound COc1ccc([N+](=O)[O-])c(N2CCOC3(CCN(C(=O)OCc4ccccc4)CC3)C2)n1 [CBK161117T] has a viability at 28.5 h, 10 µM of 103%.

Work on c1ccc2nc(N3CCCC3)c(SCCc3cnccn3)nc2c1 [CBK103695] yielded a viability at 28.5 h, 10 µM of 106%.

Compound Cc1nn(-c2ncccn2)c2c1C(C(=O)c1ccccc1)CC(=O)N2 (stereo not shown) [CBK287890] has a viability at 28.5 h, 10 µM of 93.2%.

O=C(O)c1ccc(CNC(=S)NCC2CCCO2)cc1 (stereo not shown) [CBK266908] gave a viability at 28.5 h, 10 µM of 98.2%.

CCC(C)NC(=O)C1=CCN(S(C)(=O)=O)C1 (stereo not shown) [CBK282861] gave a viability at 28.5 h, 10 µM of 101%.

In the case of C[C@@H](c1ccccc1)n1c(=O)[nH]c2ncc(-c3ccc(C(=O)NC4CCCC4)cc3)nc21 [CBK064542], the viability at 28.5 h, 10 µM was 91.2%.

O=C(Nc1ccc(O)cc1C(=O)O)c1cccc(Br)c1 [CBK018511] gave a viability at 28.5 h, 10 µM of 89.1%.

Compound Cc1ccc(OCc2occc2C(=O)N2CCCC3(CCOC3)C2)cc1 (stereo not shown) [CBK307532] has a viability at 28.5 h, 10 µM of 89.4%.

For O=C(NCc1nnc(-c2cccs2)o1)C(c1ccccc1)c1ccccc1 [CBK286294], the viability at 28.5 h, 10 µM was 92.6%.

COCCNC(=O)C1CCCN(c2nc3c(-c4ccccc4)csc3c(=O)[nH]2)C1 (stereo not shown) [CBK215497] showed a viability at 28.5 h, 10 µM of 114%.

Cc1ccc(N(CCc2cc(C(F)(F)F)cc(C(F)(F)F)c2)C(=O)CN)cc1NC(=O)CN(C)C [CBK003630T] gave a viability at 28.5 h, 10 µM of 84.5%.

Cc1cc2c(=O)n(Cc3ccco3)c(SCc3cc(O)[nH]n3)nc2s1 [CBK268291] gave a viability at 28.5 h, 10 µM of 94.3%.

Compound Cn1cc2c(n1)[C@H]1CN(C(=O)c3cc(C(F)(F)F)nn3C)C[C@H]1C2 [CBK283400] has a viability at 28.5 h, 10 µM of 93.8%.

For Cc1ccc(-c2nccnc2OCCn2cccc2)cc1C [CBK106864], the viability at 28.5 h, 10 µM was 101%.

With O=C(O)CCC(=O)N1CCN(C2CCCCC2)CC1 [CBK286918] the viability at 28.5 h, 10 µM was 94.1%.

In the case of CC1=CC(C)C2(COC(=O)Nc3ccccc3)COC(c3cccnc3)C1C2C (stereo not shown) [CBK262844], the viability at 28.5 h, 10 µM was 86.2%.

In the case of CCCCOc1nccnc1-c1cnn(C)c1 [CBK107085], the viability at 28.5 h, 10 µM was 92.8%.

In the case of CC(=O)Nc1ccc(-c2ccc(C(=O)N3CCN(C4CCN(C)CC4)CC3)cn2)cc1 [CBK158824], the viability at 28.5 h, 10 µM was 96.7%.

O=C(Nc1ccc(N2CCNCC2)c2ccccc12)c1cccnc1 [CBK036336T] gave a viability at 28.5 h, 10 µM of 92.9%.

With O=C(Nc1ccccc1[N+](=O)[O-])C1(c2ccccc2)CCN(S(=O)(=O)c2ccccc2)CC1 [CBK267796] the viability at 28.5 h, 10 µM was 85.9%.

Work on Cc1cc(C)nc(NS(=O)(=O)c2ccc(Nc3ncnc(N)c3[N+](=O)[O-])cc2)n1 [CBK267217] yielded a viability at 28.5 h, 10 µM of 96.6%.

For Cc1cccc(Nc2ccc(C3CCCCN3Cc3ccc4nccnc4c3)cn2)n1 (stereo not shown) [CBK285536], the viability at 28.5 h, 10 µM was 76.2%.
